Results as given in patent publication US20230406885A1, “CYCLIC PEPTIDES FOR TRAPPING INTERLEUKIN-1 BETA” (MERCK SHARP & DOHME LLC, priority 2022, published 2023).
Where a SMILES comes first, the peptide text is derived from it. [ ]: non-standard residue; d: D form. Trp(βS-Me,4-F) = C[C@@H](c1c[nH]c2cccc(F)c12)[C@H](N)C(=O)O; Bip(4'-COOH) = N[C@@H](Cc1ccc(-c2ccc(C(=O)O)cc2)cc1)C(=O)O; Phe(4-COOH) = N[C@@H](Cc1ccc(C(=O)O)cc1)C(=O)O; h3Pal(5-CN) = N#Cc1cncc(CC[C@H](N)C(=O)O)c1; Pro(4R-NH2) = N[C@H]1CN[C@H](C(=O)O)C1; Ala(4-THP) = N[C@@H](CC1CCOCC1)C(=O)O; hTyr = N[C@@H](CCc1ccc(O)cc1)C(=O)O; h4Pal = N[C@@H](CCc1ccncc1)C(=O)O; 4Pal = N[C@@H](Cc1ccncc1)C(=O)O; Aad = N[C@@H](CCCC(=O)O)C(=O)O; hLys = NCCCCC[C@H](N)C(=O)O; dDab = NCC[C@@H](N)C(=O)O; dNMeA = CN[C@H](C)C(=O)O; Nva = CCC[C@H](N)C(=O)O

What follows are molecules tested against T1, Recombinant human IL-1β (Homo sapiens, UniProt P01584) (assay: IL-6 assay in MRC5 cells: inhibition of IL-1β induced IL-6 secretion (AlphaLISA)). Details: inhibition of IL-1β induced IL-6 secretion in MRC5 cells; IL-1β pre-incubated 1 hour with compound; read-out: MRC5 IC50.
T1 construct: purchased BioLegend 579404
T1 sequence (P01584 117-269): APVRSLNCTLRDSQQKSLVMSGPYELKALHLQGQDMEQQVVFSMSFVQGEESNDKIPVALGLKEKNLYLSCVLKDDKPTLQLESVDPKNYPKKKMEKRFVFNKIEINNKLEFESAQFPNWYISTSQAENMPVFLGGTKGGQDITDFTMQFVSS
Type: cell-based
Method in brief: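 IL-1β at 2×EC80 in seeding medium (EMEM, 0.025% BSA) preincubated 1 h at ambient temperature with compound, then 3000 MRC5 cells/well added and incubated overnight at 37 °C, 5% CO2. IL-6 in conditioned medium quantified by AlphaLISA; IC50 from 4-parameter logistic fit.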
CC(C)C[C@@H]1NC(=O)[C@H](Cc2ccncc2)NC(=O)[C@H](Cc2ccc(-c3ccc(C(=O)O)cc3)cc2)NC(=O)CNC(=O)[C@@H](C)N(C)C(=O)[C@H](CC(=O)O)NC(=O)[C@H]([C@@H](C)c2c[nH]c3cccc(F)c23)NC(=O)[C@@H]2C[C@@H](N)CN2C(=O)CNC(=O)[C@H](Cc2ccc(C(=O)O)cc2)NC(=O)[C@H](Cc2c[nH]c3ccccc23)NC(=O)[C@H](Cc2ccc(-c3ccc(C(=O)O)cc3)cc2)NC(=O)[C@H](CCc2ccc(O)cc2)NC(=O)[C@@H](C)NC1=O [Example 59] (cyclo([Bip(4'-COOH)]W[Phe(4-COOH)]G[Pro(4R-NH2)][Trp(βS-Me,4-F)]D[dNMeA]G[Bip(4'-COOH)][4Pal]L[dA][hTyr])) was tested, and the IC50 was 0.0362 nM. Work on CC(C)C[C@@H]1NC(=O)[C@H](Cc2ccccc2)NC(=O)[C@H](Cc2ccc(-c3ccc(C(=O)O)cc3)cc2)NC(=O)CNC(=O)[C@@H](C)N(C)C(=O)[C@H](CC(=O)O)NC(=O)[C@H]([C@@H](C)c2c[nH]c3cccc(F)c23)NC(=O)[C@@H]2C[C@@H](N)CN2C(=O)CNC(=O)[C@H](Cc2ccc(C(=O)O)cc2)NC(=O)[C@H](Cc2c[nH]c3ccccc23)NC(=O)[C@H](Cc2ccc(-c3ccc(C(=O)O)cc3)cc2)NC(=O)[C@H](CCc2ccc(O)cc2)NC(=O)[C@@H](C)NC1=O [Example 60] (cyclo([Bip(4'-COOH)]W[Phe(4-COOH)]G[Pro(4R-NH2)][Trp(βS-Me,4-F)]D[dNMeA]G[Bip(4'-COOH)]FL[dA][hTyr])) yielded an IC50 of 0.0689 nM. For CC(C)C[C@@H]1NC(=O)[C@H](CCc2ccncc2)NC(=O)[C@H](Cc2ccc(-c3ccc(C(=O)O)cc3)cc2)NC(=O)CNC(=O)[C@@H](C)N(C)C(=O)[C@H](CC(=O)O)NC(=O)[C@H]([C@@H](C)c2c[nH]c3cccc(F)c23)NC(=O)[C@@H]2C[C@@H](N)CN2C(=O)CNC(=O)[C@H](Cc2ccc(C(=O)O)cc2)NC(=O)[C@H](Cc2c[nH]c3ccccc23)NC(=O)[C@H](Cc2ccc(-c3ccc(C(=O)O)cc3)cc2)NC(=O)[C@H](CCc2ccc(O)cc2)NC(=O)[C@@H](C)NC1=O [Example 61] (cyclo([Bip(4'-COOH)]W[Phe(4-COOH)]G[Pro(4R-NH2)][Trp(βS-Me,4-F)]D[dNMeA]G[Bip(4'-COOH)][h4Pal]L[dA][hTyr])), the IC50 was 0.312 nM. CC(C)C[C@@H]1NC(=O)[C@H](CCCCCN)NC(=O)[C@H](Cc2ccc(-c3ccc(C(=O)O)cc3)cc2)NC(=O)CNC(=O)[C@@H](C)N(C)C(=O)[C@H](CC(=O)O)NC(=O)[C@H]([C@@H](C)c2c[nH]c3cccc(F)c23)NC(=O)[C@@H]2C[C@@H](N)CN2C(=O)CNC(=O)[C@H](Cc2ccc(C(=O)O)cc2)NC(=O)[C@H](Cc2c[nH]c3ccccc23)NC(=O)[C@H](Cc2ccc(-c3ccc(C(=O)O)cc3)cc2)NC(=O)[C@H](CCc2ccc(O)cc2)NC(=O)[C@@H](C)NC1=O [Example 62] (cyclo([Bip(4'-COOH)]W[Phe(4-COOH)]G[Pro(4R-NH2)][Trp(βS-Me,4-F)]D[dNMeA]G[Bip(4'-COOH)][hLys]L[dA][hTyr])) gave an IC50 of 0.283 nM. Molecule CC(C)C[C@@H]1NC(=O)[C@H](CCCC(N)=O)NC(=O)[C@H](Cc2ccc(-c3ccc(C(=O)O)cc3)cc2)NC(=O)CNC(=O)[C@@H](C)N(C)C(=O)[C@H](CC(=O)O)NC(=O)[C@H]([C@@H](C)c2c[nH]c3cccc(F)c23)NC(=O)[C@@H]2C[C@@H](N)CN2C(=O)CNC(=O)[C@H](Cc2ccc(C(=O)O)cc2)NC(=O)[C@H](Cc2c[nH]c3ccccc23)NC(=O)[C@H](Cc2ccc(-c3ccc(C(=O)O)cc3)cc2)NC(=O)[C@H](CCc2ccc(O)cc2)NC(=O)[C@@H](C)NC1=O [Example 63] (cyclo([Bip(4'-COOH)]W[Phe(4-COOH)]G[Pro(4R-NH2)][Trp(βS-Me,4-F)]D[dNMeA]G[Bip(4'-COOH)][Aad](NH2)L[dA][hTyr])) has an IC50 of 0.0629 nM. C[C@@H]1C(=O)NCC(=O)N[C@@H](Cc2ccc(-c3ccc(C(=O)O)cc3)cc2)C(=O)N[C@@H](CCCCN)C(=O)N[C@@H](CC2CCOCC2)C(=O)N[C@H](C)C(=O)N[C@@H](CCc2cncc(C#N)c2)C(=O)N[C@@H](Cc2ccc(-c3ccc(C(=O)O)cc3)cc2)C(=O)N[C@@H](Cc2c[nH]c3ccccc23)C(=O)N[C@@H](Cc2ccc(C(=O)O)cc2)C(=O)NCC(=O)N2C[C@H](N)C[C@H]2C(=O)N[C@@H]([C@@H](C)c2c[nH]c3cccc(F)c23)C(=O)N[C@@H](CC(=O)O)C(=O)N1C [Example 64] (cyclo([Bip(4'-COOH)]W[Phe(4-COOH)]G[Pro(4R-NH2)][Trp(βS-Me,4-F)]D[dNMeA]G[Bip(4'-COOH)]K[Ala(4-THP)][dA][h3Pal(5-CN)])) was tested, and the IC50 was 0.0182 nM. C[C@@H]1C(=O)NCC(=O)N[C@@H](Cc2ccc(-c3ccc(C(=O)O)cc3)cc2)C(=O)N[C@@H](CCCCN)C(=O)N[C@@H](CC2CCOCC2)C(=O)N[C@H](C)C(=O)N[C@@H](CCc2ccc(O)cc2)C(=O)N[C@@H](Cc2ccc(-c3ccc(C(=O)O)cc3)cc2)C(=O)N[C@@H](Cc2c[nH]c3ccccc23)C(=O)N[C@@H](Cc2ccc(C(=O)O)cc2)C(=O)NCC(=O)N2C[C@H](N)C[C@H]2C(=O)N[C@@H]([C@@H](C)c2c[nH]c3cccc(F)c23)C(=O)N[C@@H](CC(=O)O)C(=O)N1C [Example 65] (cyclo([Bip(4'-COOH)]W[Phe(4-COOH)]G[Pro(4R-NH2)][Trp(βS-Me,4-F)]D[dNMeA]G[Bip(4'-COOH)]K[Ala(4-THP)][dA][hTyr])) showed an IC50 of 0.0158 nM. Work on CC(C)C[C@@H]1NC(=O)[C@H](CCCCN)NC(=O)[C@H](Cc2ccc(-c3ccc(C(=O)O)cc3)cc2)NC(=O)CNC(=O)[C@@H](C)N(C)C(=O)[C@H](CC(=O)O)NC(=O)[C@H]([C@@H](C)c2c[nH]c3cccc(F)c23)NC(=O)[C@@H]2C[C@@H](N)CN2C(=O)CNC(=O)[C@H](Cc2ccc(C(=O)O)cc2)NC(=O)[C@H](Cc2c[nH]c3ccccc23)NC(=O)[C@H](Cc2ccc(-c3ccc(C(=O)O)cc3)cc2)NC(=O)[C@H](CCc2cncc(C#N)c2)NC(=O)[C@@H](C)NC1=O [Example 66] (cyclo([Bip(4'-COOH)]W[Phe(4-COOH)]G[Pro(4R-NH2)][Trp(βS-Me,4-F)]D[dNMeA]G[Bip(4'-COOH)]KL[dA][h3Pal(5-CN)])) yielded an IC50 of 0.0299 nM. For CC(C)C[C@@H]1NC(=O)[C@H](CCCCN)NC(=O)[C@H](Cc2ccc(-c3ccc(C(=O)O)cc3)cc2)NC(=O)CNC(=O)[C@@H](C)N(C)C(=O)[C@H](CC(=O)O)NC(=O)[C@H]([C@@H](C)c2c[nH]c3cccc(F)c23)NC(=O)[C@@H]2C[C@@H](N)CN2C(=O)CNC(=O)[C@H](Cc2ccc(C(=O)O)cc2)NC(=O)[C@H](Cc2c[nH]c3ccccc23)NC(=O)[C@H](Cc2ccc(-c3ccc(C(=O)O)cc3)cc2)NC(=O)[C@H](CCc2ccc(O)cc2)NC(=O)[C@@H](C)NC1=O [Example 67] (cyclo([Bip(4'-COOH)]W[Phe(4-COOH)]G[Pro(4R-NH2)][Trp(βS-Me,4-F)]D[dNMeA]G[Bip(4'-COOH)]KL[dA][hTyr])), the IC50 was 0.046 nM. In the case of CC(C)C[C@@H]1NC(=O)[C@H](CCCCN)NC(=O)[C@H](Cc2ccc(-c3ccc(C(=O)O)cc3)cc2)NC(=O)CNC(=O)[C@@H](C)N(C)C(=O)[C@H](CC(=O)O)NC(=O)[C@H]([C@@H](C)c2c[nH]c3cccc(F)c23)NC(=O)[C@@H]2C[C@@H](N)CN2C(=O)CNC(=O)[C@H](Cc2ccc(C(=O)O)cc2)NC(=O)[C@H](Cc2c[nH]c3ccccc23)NC(=O)[C@H](Cc2ccc(-c3ccc(C(=O)O)cc3)cc2)NC(=O)[C@H](CCc2ccc(O)cc2)NC(=O)[C@@H](CCN)NC1=O [Example 68] (cyclo([Bip(4'-COOH)]W[Phe(4-COOH)]G[Pro(4R-NH2)][Trp(βS-Me,4-F)]D[dNMeA]G[Bip(4'-COOH)]KL[dDab][hTyr])), the IC50 is reported as 0.296 nM. With CC(C)C[C@@H]1NC(=O)[C@H](CCCCN)NC(=O)[C@H](Cc2ccc(-c3ccc(C(=O)O)cc3)cc2)NC(=O)CNC(=O)[C@@H](C)N(C)C(=O)[C@H](CC(=O)O)NC(=O)[C@H]([C@@H](C)c2c[nH]c3cccc(F)c23)NC(=O)[C@@H]2C[C@@H](N)CN2C(=O)CNC(=O)[C@H](Cc2ccc(C(=O)O)cc2)NC(=O)[C@H](Cc2c[nH]c3ccccc23)NC(=O)[C@H](Cc2ccc(-c3ccc(C(=O)O)cc3)cc2)NC(=O)[C@H](CCc2ccc(O)cc2)NC(=O)[C@@H](CO)NC1=O [Example 69] (cyclo([Bip(4'-COOH)]W[Phe(4-COOH)]G[Pro(4R-NH2)][Trp(βS-Me,4-F)]D[dNMeA]G[Bip(4'-COOH)]KL[dS][hTyr])) the IC50 was 0.334 nM. CC(C)C[C@@H]1NC(=O)[C@H](CCCCN)NC(=O)[C@H](Cc2ccc(-c3ccc(C(=O)O)cc3)cc2)NC(=O)CNC(=O)[C@@H](C)N(C)C(=O)[C@H](CC(=O)O)NC(=O)[C@H]([C@@H](C)c2c[nH]c3cccc(F)c23)NC(=O)[C@@H]2C[C@@H](N)CN2C(=O)CNC(=O)[C@H](Cc2ccc(C(=O)O)cc2)NC(=O)[C@H](Cc2c[nH]c3ccccc23)NC(=O)[C@H](Cc2ccc(-c3ccc(C(=O)O)cc3)cc2)NC(=O)[C@H](CCc2ccc(O)cc2)NC(=O)CNC1=O [Example 70] (cyclo([Bip(4'-COOH)]W[Phe(4-COOH)]G[Pro(4R-NH2)][Trp(βS-Me,4-F)]D[dNMeA]G[Bip(4'-COOH)]KLG[hTyr])) gave an IC50 of 0.0973 nM. CCC[C@@H]1NC(=O)[C@H](CCCCN)NC(=O)[C@H](Cc2ccc(-c3ccc(C(=O)O)cc3)cc2)NC(=O)CNC(=O)[C@@H](C)N(C)C(=O)[C@H](CC(=O)O)NC(=O)[C@H]([C@@H](C)c2c[nH]c3cccc(F)c23)NC(=O)[C@@H]2C[C@@H](N)CN2C(=O)CNC(=O)[C@H](Cc2ccc(C(=O)O)cc2)NC(=O)[C@H](Cc2c[nH]c3ccccc23)NC(=O)[C@H](Cc2ccc(-c3ccc(C(=O)O)cc3)cc2)NC(=O)[C@H](CCc2ccc(O)cc2)NC(=O)[C@@H](C)NC1=O [Example 71] (cyclo([Bip(4'-COOH)]W[Phe(4-COOH)]G[Pro(4R-NH2)][Trp(βS-Me,4-F)]D[dNMeA]G[Bip(4'-COOH)]K[Nva][dA][hTyr])) showed an IC50 of 0.0926 nM.
